# According to patent US9464106B2, “Oligonucleotides useful for detecting and analyzing nucleic acids of interest” (Exiqon A/S, priority 2002, dated 2016):
# l = locked nucleic acid (LNA); [5mC] = 5-methylcytosine; d = 2'-deoxy (DNA)
# Test system: yeast HSP78 (YDR258C) sequence
# Assay: Duplex melting temperatures of HSP78 25-mer capture probes (UV spectrophotometer)
# Settings: 25-mer capture probe duplex with complementary target; design PM = perfectly matched, MM = single mismatch; DNA, LNA_T (T) or LNA_TC (TC) substituted
row,Substance,Average duplex melting temp.
1,"12735 (DNA ATCAAATAGGAAATCAGCTAAAGCC; sugars from the 5' end dlldddldddddddlddllddddld, [5mC] at 3, 15, 18, 24, backbone not given here) [compound 12735]",64.6 °C
2,"12736 (DNA GACCTAAGAACAAAAAGCTGGCAAT; sugars from the 5' end ddllldddddlddddddllddlddd, all C 5-methyl, backbone not given here) [compound 12736]",71.4 °C
3,"12737 (DNA AAATAGCAGCAAAGGCCTCGTCTTG; sugars from the 5' end dddlddlddldddddldlldlddld, [5mC] at 7, 10, 16, 19, backbone not given here) [compound 12737]",79.3 °C
4,"12738 (DNA ATAGCAGCAATGCCCTCGTCTTGGC; sugars from the 5' end dlddldddddlddddldddldlddd, [5mC] at 5, 20, backbone not given here) [compound 12738]",71.5 °C
5,"12739 (DNA GCAATGGCCTCGACTTGGCCAACGA; sugars from the 5' end d10 l1 d2 l1 d11, [5mC] at 11, 14, backbone not given here) [compound 12739]",73.1 °C
6,"12740 (DNA GATGAACTCAGGAGGATAGGATCTT; sugars from the 5' end ddldddllldddddddlddddllld, all C 5-methyl, backbone not given here) [compound 12740]",70.4 °C
7,"12741 (DNA TCAGTTAGCCAAACCTTCGCTTCAT; sugars from the 5' end dlddlddddlddddddlddlddldd, [5mC] at 2, 10, 20, 23, backbone not given here) [compound 12741]",70.6 °C
8,"12742 (DNA GTTGCCATGGAGATCAAAATCTGTC; sugars from the 5' end dlddlldlddddddlddddllddld, [5mC] at 5, 6, 15, 21, backbone not given here) [compound 12742]",61.6 °C
9,"12743 (DNA AGACGTACAGCAACAGAAATAGCAG; sugars from the 5' end dddldldlddlddddddddlddldd, [5mC] at 4, 8, 11, 23, backbone not given here) [compound 12743]",73.6 °C
10,"12744 (DNA TTTGGTAGCACGTCAAGCTTAGTAT; sugars from the 5' end ldlddlddldlddddddldlddldd, [5mC] at 9, 11, 18, backbone not given here) [compound 12744]",73.3 °C
11,"12745 (DNA ATAAAGCTGGCATTAGGTCTCTTTT; sugars from the 5' end dlddddllddlddddddllldllld, [5mC] at 7, 11, 19, backbone not given here) [compound 12745]",74 °C
12,"12746 (DNA TTTTTCGGCCAATCGATCTTGAATT; sugars from the 5' end ldldllddlldddddddldldddld, [5mC] at 6, 9, 10, 18, backbone not given here) [compound 12746]",71 °C
13,"12747 (DNA CACTCTAACAGTATCGCCGTTTCTA; sugars from the 5' end ldldldddldddddddlddldllld, [5mC] at 1, 3, 5, 9, 17, 23, backbone not given here) [compound 12747]",75.2 °C
14,"12748 (DNA TCAATGGCCTTGGACCATATAATTG; sugars from the 5' end llddlddldllddddldldlddlld, [5mC] at 2, 8, 16, backbone not given here) [compound 12748]",74.8 °C
15,"12749 (DNA AAAACGACAGCAAAAGGCTTTCTTC; sugars from the 5' end ddddlddlddlddddddlldlldld, [5mC] at 5, 8, 11, 18, 22, backbone not given here) [compound 12749]",72 °C
16,"12750 (DNA ATTGACCTCAAATCTTTCTTGGATA; sugars from the 5' end dllddlllldddddlldllldddld, [5mC] at 6, 7, 9, 18, backbone not given here) [compound 12750]",72.2 °C
17,"12751 (DNA CCCAACTTTGTGACGTTTAATAAAA; sugars from the 5' end llldddllddlddddlllddldddd, [5mC] at 1, 2, 3, backbone not given here) [compound 12751]",67.6 °C
18,"12752 (DNA ACCATCATCACCCAACTTTGTGTCG; DNA, backbone not given here; further chemistry not fully specified) [compound 12752]",67.5 °C
19,"12753 (DNA CAATGATCGTGTTACGGAAATCAAC; DNA, backbone not given here; further chemistry not fully specified) [compound 12753]",64.2 °C
20,"12754 (DNA TGGCCTAGGGAATCGGTCAGCTTAC; DNA, backbone not given here; further chemistry not fully specified) [compound 12754]",70.1 °C
21,"12755 (DNA TTGGAAACATCGGGGTGCGCTTTTT; DNA, backbone not given here; further chemistry not fully specified) [compound 12755]",70.8 °C

row,Substance,Average duplex melting temp.
1,"12756 (DNA GAAACATCGGGGTGCGCTTTTTCAA; DNA, backbone not given here; further chemistry not fully specified) [compound 12756]",68.7 °C
2,"12757 (DNA GACAGCCTCAGTTAATTGGCCACCA; DNA, backbone not given here; further chemistry not fully specified) [compound 12757]",70.2 °C
3,"12758 (DNA CCGATTAAACGAGAGACAGTATGCT; DNA, backbone not given here; further chemistry not fully specified) [compound 12758]",65.4 °C
4,"12759 (DNA ATCAAATAGGAATTCAGCTAAAGCC; DNA, backbone not given here; further chemistry not fully specified) [compound 12759]",61.5 °C
5,"12760 (DNA GACCTAAGAACATAAAGCTGGCAAT; DNA, backbone not given here; further chemistry not fully specified) [compound 12760]",63.5 °C
6,"12761 (DNA AAATAGCAGCAATGGCCTCGTCTTG; DNA, backbone not given here; further chemistry not fully specified) [compound 12761]",69.2 °C
7,"12762 (DNA ATAGCAGCAATGGCCTCGTCTTGGC; DNA, backbone not given here; further chemistry not fully specified) [compound 12762]",72.7 °C
8,"12763 (DNA GCAATGGCCTCGTCTTGGCCAACGA; DNA, backbone not given here; further chemistry not fully specified) [compound 12763]",72.8 °C
9,"12764 (DNA GATGAACTCAGGTGGATAGGATCTT; DNA, backbone not given here; further chemistry not fully specified) [compound 12764]",64 °C
10,"12765 (DNA TCAGTTAGCCAATCCTTCGCTTCAT; DNA, backbone not given here; further chemistry not fully specified) [compound 12765]",66.1 °C
11,"12766 (DNA GTTGCCATGGAGTTCAAAATCTGTC; DNA, backbone not given here) [compound 12766]",65.8 °C
12,"12767 (DNA AGACGTACAGCATCAGAAATAGCAG; DNA, backbone not given here; further chemistry not fully specified) [compound 12767]",66.6 °C
13,"12768 (DNA TTTGGTAGCACGACAAGCTTAGTAT; DNA, backbone not given here) [compound 12768]",65.7 °C
14,"12769 (DNA ATAAAGCTGGCAATAGGTCTCTTTT; DNA, backbone not given here; further chemistry not fully specified) [compound 12769]",63.6 °C
15,"12770 (DNA TTTTTCGGCCAAACGATCTTGAATT; DNA, backbone not given here; further chemistry not fully specified) [compound 12770]",65 °C
16,"12771 (DNA CACTCTAACAGTTTCGCCGTTTCTA; DNA, backbone not given here) [compound 12771]",66.3 °C
17,"12772 (DNA TCAATGGCCTTGCACCATATAATTG; DNA, backbone not given here) [compound 12772]",64 °C
18,"12773 (DNA AAAACGACAGCATAAGGCTTTCTTC; DNA, backbone not given here; further chemistry not fully specified) [compound 12773]",64.5 °C
19,"12774 (DNA ATTGACCTCAAAACTTTCTTGGATA; DNA, backbone not given here; further chemistry not fully specified) [compound 12774]",61.8 °C
20,"12775 (DNA CCCAACTTTGTGTCGTTTAATAAAA; DNA, backbone not given here; further chemistry not fully specified) [compound 12775]",61 °C
21,"12776 (DNA ACCATCATCACCCAACTTTGTGTCG; DNA at ACG, LNA at T, backbone not given here; further chemistry not fully specified) [compound 12776]",79.2 °C
